Laboratory results reported in PMC8389614, “A Comparison of Acute Pharmacological Effects of Methylone and MDMA Administration in Humans and Oral Fluid Concentrations as Biomarkers of Exposure” (Biology, 2021).

How the values were obtained:
[1] = test system: 5-HT2C receptors; parameters: method as in PMID 25237120, PMID 23583454; conditions: cited from earlier work
[2] = test system: healthy poly-drug users; assay: Subjective effects, ARCI 49-item short form; assay type: in vivo, humans; parameters: key to ARCI PCAG Dunnet’s Test: “a” (times 0–1 h); “b” (times 0–2 h); “c” (times 0–4 h); not significant (NS); conditions: for ARCI A (increased energy) AUC0–4h / ARCI A (increased energy) Emax / ARCI BG (intellectual efficiency) AUC0–4h / ARCI BG (intellectual efficiency) Emax / ARCI MBG (euphoria) AUC0–4h / ARCI MBG (euphoria) Emax / ARCI PCAG (sedation) AUC0–4h / ARCI PCAG (sedation) Emax / ARCI A (increased energy) Tmax: oral, methylone 100–300 mg n=8, MDMA 75–100 mg n=6; for ARCI A (increased energy) AUC0–4h / ARCI A (increased energy) Emax / ARCI BG (intellectual efficiency) AUC0–4h / ARCI BG (intellectual efficiency) Emax / ARCI MBG (euphoria) AUC0–4h / ARCI MBG (euphoria) Emax / ARCI PCAG (sedation) AUC0–4h / ARCI PCAG (sedation) Emax: baseline-adjusted, mean ± SD; for ARCI A (increased energy) Tmax: median (min–max); for ARCI A Dunnet’s Test / ARCI BG Dunnet’s Test / ARCI MBG Dunnet’s Test / ARCI PCAG Dunnet’s Test: time points significantly different from baseline
Description: (§1) The study was designed as a non-controlled prospective observational study in a naturalistic setting with methylone and MDMA self-administration. The methodology, including procedures and evaluations, coincides with previous observational–naturalistic studies aimed at evaluating the acute effects of other NPS [38, 39, 40]. Six subjects (5 M, 1 F) self-administered MDMA and 8 subjects (5 M, 3 F) self-administered methylone. Each subject participated only in one session. Participants brought their own substance obtained from an unknown source, which was tested by Energy Control, a harm reduction organization that provides a drug checking service to drug users. Pills containing methylone and MDMA were analyzed by gas chromatography associated with mass spectrometry (GC/MS), a technique that traces the presence of the most frequent drugs of abuse, such as MDMA, cocaine, heroin, amphetamine and methamphetamine, LSD, and multiple NPS (methylone, mephedrone, and other synthetic cathinones, synthetic cannabinoids, tryptamines, among others).
(§2) In both sessions, participants selected the dose of methylone or MDMA according to their previous drug use experience. Doses of methylone could be selected from a range (75–300 mg) that was previously defined according to the consulted literature. The WHO Expert Committee on Drug Dependence (Thirty-Sixth Meeting, Geneva, Switzerland, 16–20 June 2014) established that 60 mg of methylone was the threshold dose and doses over 250 mg were often related to very strong activity. Some users have reported uses of 300 mg of methylone as a common dose [www.erowid.org] (accessed on 15 June 2021). The mean of the selected doses of MDMA was 87.50 mg (3 subjects ingested 75 mg (2 males and 1 female), 3 males 100 mg). In the other study session, methylone doses ranged from 100 to 300 mg, with a mean of 187.50 mg. Based on their dose selection, 1 male ingested 100 mg, 2 subjects 150 mg (1 male and 1 female), 4 subjects 200 mg (2 males and 2 females), and 1 male 300 mg.
(§3) The sessions were conducted in a naturalistic setting. Participants were allowed to talk, read, listen to music, or play games, except during the evaluation times. However, they were asked to refrain from talking about the effects of the substance. All the subjects were evaluated simultaneously at baseline, 1, 2, and 4 h after administration of methylone or MDMA, which occurred approximately at 16:00 h. At each time point, evaluations were followed in a specific order: physiological effects, oral fluid collection, and subjective effects scales and questionnaires.
Subjective effects were evaluated at baseline, 1, 2, and 4 h after self-administration using visual analogue scales (VAS), the Addiction Research Center Inventory (ARCI), and the Evaluation of Subjective Effects of Substances with Abuse Potential questionnaire (VESSPA-SSE).
The standardized ARCI 49-item short form is a true/false questionnaire used to evaluate the subjective effects of drugs of abuse. This inventory includes five subscales that assess pentobarbital–chlorpromazine–alcohol-like effects (PCAG, sedation), morphine–benzedrine-like effects (MBG, euphoria), lysergic acid diethylamide-like effects (LSD, dysphoria), benzedrine-like effects (BG, intellectual efficiency), and amphetamine-like effects (A, increased energy).
(§4) Vital signs (SBP, DBP, and HR) and subjective effects (VAS, ARCI, and VESSPA-SSE) were baseline-adjusted. Maximum effects and the time in which maximum effects appeared were determined, and the area under the curve (AUC0–4h) was calculated with the trapezoidal rule.
(§5) Thirdly, to find possible significant changes from baseline, a Dunnett multiple comparison test was conducted to compare each time point with baseline in both drug conditions (0–1 h, 0–2 h, 0–4 h).

[3] = Oral fluid to blood (OF/B) concentration ratio and plasma concentration; conditions: human, 100 mg
[4] = test system: healthy poly-drug users; assay: Physiological effects (non-invasive SBP, DBP, HR, cutaneous temperature) after oral self-administration; assay type: in vivo, humans; parameters: key to HR Dunnet’s Test: “a” (times 0–1 h); “b” (times 0–2 h); “c” (times 0–4 h); not significant (NS); conditions: for DBP AUC0–4h / DBP Emax / HR AUC0–4h / HR Emax / SBP AUC0–4h / SBP Emax / Variation in cutaneous temperature: oral; for DBP AUC0–4h / DBP Emax / HR AUC0–4h / HR Emax / SBP AUC0–4h / SBP Emax: methylone 100–300 mg n=8, MDMA 75–100 mg n=6, baseline-adjusted, mean ± SD; for Variation in cutaneous temperature: methylone 100–300 mg, MDMA 75–100 mg, versus baseline, 0–4 h; for DBP Dunnet’s Test / HR Dunnet’s Test / SBP Dunnet’s Test: time points significantly different from baseline
Description: as §1, §2, §3
Non-invasive systolic blood pressure (SBP), diastolic blood pressure (DBP), and heart rate (HR) were measured with subjects in the sitting position, using an automatic Omron monitor at baseline, 1, 2, and 4 h (h) after self-administration. Cutaneous temperature was determined at the same time points.
as §4, §5

[5] = Oral fluid concentrations (Salivette, LC-MS/MS); assay type: in vivo, humans; conditions: both sexes, human; for Cmax / AUC(0-t): methylone 100–300 mg n=8, MDMA 75–100 mg n=6, mean ± SD; for AUC(0-t): read-out: Oral fluid AUC0–4 h; for Tmax: methylone 100–300 mg n=8, MDMA 75–100 mg n=6, median (min–max)
Procedure: In both sessions, oral fluid samples were collected with Salivette to determine methylone and MDMA concentrations in oral fluid at baseline, 1 h, 2 h, and 4 h. All samples were centrifuged after collection and stored frozen at −20 °C until analysis. Methylone and MDMA oral fluid concentrations were quantified via liquid chromatography tandem–mass spectrometry (LC–MS/MS).
For oral fluid concentrations of MDMA and methylone, only a descriptive analysis was presented showing main pharmacokinetics data such as the maximum concentration (Cmax), the time required to reach maximum concentrations (Tmax), and AUC0–4h. These parameters were calculated using the Pharmacokinetic Functions for Microsoft Excel (Joel Usansky, Atul Desai, and Diane Tang-Liu, Department of Pharmacokinetics and Drug Metabolism, Allergan, Irvine, CA, USA).

[6] = test system: users; parameters: method as in earlier work; conditions: cited from earlier work
[7] = test system: CYP2D6; conditions: limited contribution of CYP1A2, CYP2B6, CYP2C19; cited from earlier work
[8] = test system: 5-HT1A receptor; parameters: method as in PMID 25237120, PMID 23583454; conditions: cited from earlier work
[9] = oral administration, user reports

SMILES | Activity at 5-HT2C receptors [1] | ARCI A (increased energy) AUC0–4h [2] | ARCI A (increased energy) Emax [2] | ARCI BG (intellectual efficiency) AUC0–4h [2] | ARCI BG (intellectual efficiency) Emax [2] | ARCI MBG (euphoria) AUC0–4h [2] | ARCI MBG (euphoria) Emax [2] | ARCI PCAG (sedation) AUC0–4h [2] | ARCI PCAG (sedation) Emax [2] | ARCI A (increased energy) Tmax [2] | ARCI A Dunnet’s Test [2] | ARCI BG Dunnet’s Test [2] | ARCI MBG Dunnet’s Test [2] | ARCI PCAG Dunnet’s Test [2] | DBP AUC0–4h [4] | DBP Emax [4] | HR AUC0–4h [4] | HR Emax [4] | SBP AUC0–4h [4] | SBP Emax [4] | further results
CNC(C)Cc1ccc2c(c1)OCO2 (stereo not shown) [MDMA, 3,4-methylenedioxymethamphetamine] | partial agonist rather than an antagonist | 15.75 ± 2.79 | 5.83 ± 1.17 score | 9.83 ± 6.38 | 4.67 ± 2.25 score | 20.83 ±10.05 | 8.0 ± 3.35 score | −1.58 ± 8.39 | −0.83 ± 3.54 score | 1.0 (1.0–2.0) h | a, b, c | a, b | a, b | NS | 78.92 ± 30.33 | 32.17 ± 11.29 mmHg | 23.83 ± 38.73 | 10.67 ± 18.22 bpm | 107.67 ± 44.34 | 46.83 ± 20.83 mmHg | Kp [3]: 22.4; Variation in cutaneous temperature [4]: Neither of the substances caused significant variations; DBP Dunnet’s Test [4]: a, b; HR Dunnet’s Test [4]: NS; SBP Dunnet’s Test [4]: a, b; Cmax [5]: 2.94 ± 2.76 µg/mL; AUC(0-t) [5]: 6.59 ± 5.23 µg·h/mL; Tmax [5]: 2 h
CNC(C)C(=O)c1ccc2c(c1)OCO2 (stereo not shown) [Methylone, 3,4-methylenedioxymethcathinone] | weak antagonist effects | 12.56 ± 7.77 | 5.38 ± 3.29 score | 10.06 ± 7.83 | 4.63 ± 3.34 score | 16.63 ± 13.21 | 7.5 ± 5.13 score | −2.75 ± 3.73 | −1.25 ± 1.58 score | 1.5 (1.0–4.0) h | a, b | a, b | a, b | a | 55.19 ± 31.02 | 19.63 ± 13.96 mmHg | 52.06 ± 39.16 | 20.50 ± 19.78 bpm | 80.81 ± 42.89 | 31.25 ± 14.77 mmHg | Threshold dose ([6]; WHO Expert Committee on Drug Dependence): 60 mg; Onset of effects after administration [6, 9]: 15 to 60 min; Time of peak effects [6, 9]: 60 to 90 min; Total duration of effects [6, 9]: 3 to 5 h; Enzymes metabolizing the substance in the liver [7]: principally by the enzymatic activity of CYP2D6; Variation in cutaneous temperature [4]: Neither of the substances caused significant variations; DBP Dunnet’s Test [4]: a, b, c; HR Dunnet’s Test [4]: a; SBP Dunnet’s Test [4]: a, b, c; Cmax [5]: 15.5 µg/mL; AUC(0-t) [5]: 40.6 µg·h/mL; Tmax [5]: 2 h; Activity at the 5-HT1A receptor [8]: partial agonist
